Earlier results as cited in patent US12193471B2, “Aerosolizable formulation” (NICOVENTURES TRADING LIMITED, priority 2018, dated 2025).

Conditions: compared to base cyclodextrins such as β-cyclodextrin

2-hydroxy-propyl-β-cyclodextrin
solubility in water: increased solubility in water
